The text below walks through data of patent US8066979B1, “Attractants and repellents for the tropical root weevil Diaprepes Abbreviatus” (The United States of America as represented by the …, priority 2007, dated 2011).

For assay [1], the system named is D. abbreviatus antennae. As to the kind of experiment: Electroantennography (EAG) recordings. Details: species or system Diaprepes abbreviatus. To be noted: for antenna sensory threshold: amount in stimulus cartridge; for EAGs compared on the same antenna (enantiomer/racemate comparison): n=3, paired Wilcoxon test; for Mean EAG of the weevil antenna to the standard: diluted 1000-fold in hexane, mean±SE, n=30; for EAG dose-response curve at the two higher stimulus loads: 10 μg and 100 μg. The protocol: Electroantennography (EAG) recordings: For EAGs, an adult weevil antenna was mounted between two electrodes as described above for GC-EAD recordings. EAGs were analyzed using EAG 2.3 software (Syntech).
The following chemicals were serially diluted (ca. 0.01-100 μg) in hexane and tested separately on the antenna: cis-3-hexen-1-ol, trans-2-hexen-1-ol, (±)-linalool, (R)-(−)-linalool, (R)-(+)-citronellal, (S)-(−)-citronellal, cis-geraniol (nerol), trans-geraniol, cis-citral (neral), trans-citral (geranial), and carvacrol. Citral isomers were tested together in a blend. In order to compare activity of (±)-linalool and (R)-(−)-linalool ([…] was not available) as well as (R)-(+)-citronellal and (S)-(−)-citronellal, the enantiomers were tested alternatively on the same antenna of female and male weevils. Solvents and synthetic chemicals used in this investigation were ≧97% pure and acquired from Aldrich, Fisher Scientific, Fluka, and Sigma. Nomenclature of chemicals in the text follows that employed by NIST (http://webbook.nist.gov/chemistry/). One microliter of each solution was deposited on a small filter paper strip (0.8×2 cm; Whatman) that was inserted into a Pasteur pipette (cartridge) after solvent evaporation. The tip of the pipette was introduced via a hole in the wall of the stainless steel tube at 3 cm from the preparation. An air current (0.5 s duration, 50 cm/s airspeed; Air Velocity Meter 441S, Kurtz Instruments, USA) swept the chemicals evaporating from the filter paper from the cartridge (Stimulus Controller CS-05, Syntech) to the air-stream in which the antenna was bathed. Interstimulus time intervals of 2-3 min allowed for recovery of the antennal receptors. To allow for changes in sensitivity of an antenna preparation over time, stimulation with a standard compound preceded and followed each stimulus tested. A puff of 1 μg of (R)-(−)-linalool served as standard for EAGs with cis-3-hexen-1-ol and trans-2-hexen-1-ol, and 1 μg of cis-3-hexen-1-ol for EAGs with other compounds. A solvent control consisted of 1 μl of hexane on filter paper. EAGs were standardized by calculating the percent response of the experimental odorant relative to the mean of two responses to the standard preceding and following its presentation.
(§1) Statistical analysis: EAGs between (±)-linalool and (R)-(−)-linalool as well as between (R)-(+)-citronellal and (S)-(−)-citronellal on the same antenna were compared using the paired Wilcoxon test (Sokal, R. R., and F. J. Rohlf, Biometry, 3rd ed. Freeman, New York (1995)). Relative and absolute proportions of volatiles released by undamaged and damaged citrus leaves were also compared using the paired Wilcoxon test. Insect choices between test and control T-track olfactometer extremes were assessed for significant differences by the hypothesis on binomial proportions based on the standard normal approximation (Brase, C. H., and C. P. Brase, Understanding statistics, 1983, DC Health and Co, Lexington, Mass.). Other behaviors were analyzed using the paired Wilcoxon test and Chi-square test. Statistical analysis was performed using R (version 2.4.0, Vienna, Austria; Ihaka, R., and R. […], J. Comput. Graph. Stat., 5: 299-314 (1996)).

Assay [2] deals with D. abbreviatus male antenna. As to the kind of experiment: Gas chromatography-linked electroantennogram detection (GC-EAD). The following applies: for antennal response (EAD) to constituents of citrus leaf headspace: SPME collection of citrus leaf volatiles, HP-5 column. Details: species or system Diaprepes abbreviatus. An excerpt: Gas chromatography-linked electroantennogram detection (GC-EAD): The antenna of the insect was employed as a detector in tandem with a high resolution gas chromatography system (GC, Hewlett Packard, […]) as in Dickens (Dickens, J. C., Agr. Forest Entomol., 1: 47-54 (1999)) to locate biologically active constituents in volatile collections of plants and candidate chemicals. An adult weevil antenna was mounted between two glass capillaries. Silver wires were inserted into the ends of both glass capillaries. One glass capillary filled with 0.1 M NaCl served as recording electrode holding the tip of the flagellum. The other capillary filled with electrode gel (Spectra 360, Parker Laboratories, USA) served as ground electrode holding the proximal end of the pedicel. The antenna was bathed in a humidified air-stream (60% RH, 23±2° C.) delivered at 30 cm/s (Stimulus Controller CS-05, Syntech) via a stainless steel tube (5 mm internal diameter) whose outlet was approximately 0.5 cm from the preparation. The electrophysiological signal was amplified and conditioned prior to storage and analyses using a computer equipped with GC-EAD 2.3 software (Syntech). Samples were injected into the gas chromatograph with a septum-purged packed column injector and a flame ionization detector (FID) at 245° C. equipped with one of the following J&W Scientific capillary columns: stationary phase DB-[…], high polarity, film thickness 0.25 μm, length 30 m, i.d. 0.248 mm or HP-5, low polarity, film thickness 0.25 μm, length 30 m, i.d. 0.251 mm. After an initial temperature of 50° C., which was held for 2 min following injection, the temperature of the GC oven was increased at 15° C./min to 235° C., which was held for 8 min. The enantiomers of linalool present in the odor of citrus were separated for their identification using a β-cyclodextrin column (stationary phase HP-Chiral-20B, mid-polar polarity, film thickness 0.25 μm, length 30 m, i.d. 0.252 mm). Following the injection of the linalool enantiomers, the initial temperature of 50° C. was held for 2 min following injection and then increased at 3° C./min to 180° C. Carrier gas (He) flow was 50 cm/s. The effluent from the column was split using a Gerstel GraphPack-3D/2 splitter with a ratio of approximately 1 part to the FID and 4 parts to the electroantennogram detector (EAD). The latter was swept by the humidified air-stream to the electrophysiological preparation from a heated transfer line (Syntech) at 245° C. Volatiles that elicited responses on the antenna were identified by GC-MS (Dickens, J. C., et al., J. Exp. Biol., 4: 309-314 (2002)).

Assay [3] deals with D. abbreviatus adults. Nature of the assay: Open T-track dual choice olfactometer behavioral experiments. Format: in vivo, Diaprepes abbreviatus. Details: unit not given here. To be noted: stereotyped behavior in T-track olfactometer.
Text: Behavioral experiments: An open T-track dual choice olfactometer described by Dickens (1999) was modified as follows. A container (diameter 11 cm, height 8 cm) with petrolatum on its border, to prevent the escape of insects that were placed in its interior, was placed at the bottom of the vertical “T”. As D. abbreviatus is reluctant to move for long periods (some times hours) after being manipulated, 20-30 insects of the same sex were placed in the container in order to increase chances of observing insects walking. When more than one insect started to climb the “T” tube, the experiment was discarded. Stereotyped behaviors performed by the weevil were recorded using a video camera (Digital Handycam DCR-TVR30).
The following compounds diluted in 25 μl of mineral oil placed on a 4.25 cm filter paper (No. 2, Whatman, England) in a odour-delivery bottle were tested separately in the olfactometer (doses indicated in parenthesis): (±)-linalool (25 μg), (R)-(+)-citronellal (25 μg), carvacrol (25 μg) and cis-3-hexen-1-ol (25 μg). The following blends were also tested: (±)-linalool (25 μg)+carvacrol (2.5 μg) and (±)-linalool (25 μg)+carvacrol (2.5 μg)+cis-3-hexen-1-ol (25 μg). An equal amount of the mineral oil solvent on filter paper was placed in the other side of the olfactometer. In order to observe the behaviour of insects to solvent alone, mineral oil was placed in both odour-delivery bottles. Responses of forty insects (20 females and 20 males) were recorded for each stimulus.
as §1

Where [4] appears, read: at the injected amounts 1 ng and 10 ng.

For the compound `CC(C)=CCCC(C)=CC=O` [citral (cis and trans), citral], the antenna sensory threshold result in assay [1] (females) and in assay [1] (males) was “around 0.1 μg” throughout.

On to `CC(C)=CCC/C(C)=C\C=O` [cis-citral, cis-citral (neral)], for which the “antennal response (EAD) to injected synthetic compound” value in assay [2] (setting [4]) is reported as “no responses”.

In the case of `CC(C)=CCC[C@@H](C)CC=O` [(R)-(+)-citronellal], the “EAGs compared on the same antenna (enantiomer/racemate comparison)” value in assay [1] (females) is reported as “larger than for (S)-(−)-citronellal”. In addition, the “EAGs compared on the same antenna (enantiomer/racemate comparison)” value in assay [1] (males) is recorded as “larger than for (S)-(−)-citronellal”. In assay [3] (females), this compound returned a hesitation of 95, a reaching of 62.5 and a rectifying of 15. Besides, in assay [3] (males), the hesitation was found to be 85, the reaching amounted to 52.5 and the rectifying is 5.

For the compound `CC(C)=CCC/C(C)=C\CO` [nerol, cis-geraniol (nerol)], the “antennal response (EAD) to constituents of citrus leaf headspace” value (shortened to “antennal response (EAD) to constituents”) in assay [2] is “EAGs were recorded”. The “antennal response (EAD) to injected synthetic compound” value in assay [2] (setting [4]) is on record as “no responses”. In assay [1], the “increase in EAG response from 1 to 10 μg in the stimulus cartridge” value (“increase in EAG response from 1 to 10 μg” for short) was “did not share such a pattern”.

With `C=CC(C)(O)CCC=C(C)C` (centres unmarked) [linalool], the “antennal response (EAD) to constituents” value in assay [2] is on record as “EAGs were recorded”.

On to `CC(C)=CCC/C(C)=C/C=O` [trans-citral, trans-citral (geranial)], for which the “antennal response (EAD) to constituents” value in assay [2] is listed as “EAGs were recorded”. For the same compound, the “antennal response (EAD) to injected synthetic compound” value in assay [2] (setting [4]) is given as “no responses”.

For `CC/C=C\CCO` [cis-3-hexen-1-ol], the “antennal response (EAD) to injected synthetic compound” value in assay [2] (setting [4]) is on record as “EAGs were recorded”. Besides, the “Mean EAG of the weevil antenna to the standard” value in assay [1] came out at 1.605±0.200 mV. The antenna sensory threshold entry in assay [1] (females) and in assay [1] (males) was “around 0.1 μg” throughout. Besides, the hesitation was 75 in assay [3] (females) and 85 in assay [3] (males). The reaching in assay [3] (females) worked out at 12.5; in assay [3] (males), 30. For the same compound, the rectifying stood at 10 in assay [3] (females) and 12.5 in assay [3] (males).

Turning to `CCC/C=C/CO` [trans-2-hexen-1-ol], the “antennal response (EAD) to injected synthetic compound” value in assay [2] (setting [4]) was “EAGs were recorded”. The antenna sensory threshold result in assay [1] (females) and in assay [1] (males) was “around 0.1 μg” each time.

As for `C=CC(C)(O)CCC=C(C)C` (racemic) [(±)-linalool], the “antennal response (EAD) to injected synthetic compound” value in assay [2] (10 ng injected) is reported as “persisted”. Also, the “EAGs compared on the same antenna (enantiomer/racemate comparison)” value in assay [1] (females) is reported as “did not differ significantly”. In addition, the “EAGs compared on the same antenna (enantiomer/racemate comparison)” value in assay [1] (males) is reported as “did not differ significantly”. Further, in assay [3] (females), the hesitation stood at 80, the reaching was determined as 30 and the rectifying is recorded as 22.5. Besides, in assay [3] (males), the hesitation stood at 82.5, the reaching is listed as 52.5 and the rectifying came out at 25.

For the compound `CC(C)=CCCC(C)CC=O` (racemic) [(±)citronellal], the “antennal response (EAD) to injected synthetic compound” value in assay [2] (1 ng injected, the lowest dose) is on record as “disappeared”; in assay [2] (10 ng injected), “persisted”.

As to `CC(C)=CCC/C(C)=C/CO` [trans-geraniol], in assay [2] (setting [4]), the “antennal response (EAD) to injected synthetic compound” value was “no responses”. Further, in assay [1], the “increase in EAG response from 1 to 10 μg” value is “did not share such a pattern”. In addition, in assay [1] (females), the “increase in magnitude of EAGs with increments in amount dosed in the stimulus cartridge” value is reported as “EAG increase was not pronounced” and the antenna sensory threshold result is “around 0.1 μg”. The “increase in magnitude of EAGs with increments in amount dosed in the stimulus cartridge” value in assay [1] (males) is recorded as “no significant increases”.

As for `CC(C)=CCC[C@H](C)CC=O` [(S)-(−)-citronellal], the antenna sensory threshold entry in assay [1] (males) is “around 0.1 μg”.

For `C=C[C@](C)(O)CCC=C(C)C` [(R)-(−)-linalool], the “Mean EAG of the weevil antenna to the standard” value in assay [1] was found to be 1.750±0.311 mV. Besides, in assay [1] (females), the “EAGs compared on the same antenna (enantiomer/racemate comparison)” value is “did not differ significantly” and the antenna sensory threshold entry is listed as “around 0.1 μg”. In assay [1] (males), the “EAGs compared on the same antenna (enantiomer/racemate comparison)” value is listed as “did not differ significantly” and the antenna sensory threshold result is reported as “around 0.1 μg”.

In the case of `CC(C)=CCCC(C)CC=O` (centres unmarked) [citronellal], the “antennal response (EAD) to constituents” value in assay [2] was “EAGs were recorded”.

`Cc1ccc(C(C)C)cc1O` [carvacrol]: the “antennal response (EAD) to injected synthetic compound” value in assay [2] (setting [4]) is on record as “EAGs were recorded only for the two former chemicals”. In addition, in assay [1], the “increase in EAG response from 1 to 10 μg” value is given as “did not share such a pattern”. In assay [1] (females), the “EAG dose-response curve at the two higher stimulus loads” value is “reached saturation” and the antenna sensory threshold entry was “around 0.1 μg”. Besides, the “increase in EAGs in response to serial dilutions” value in assay [1] (females, from 0.01 μg to 1 μg) is reported as “more pronounced than for males”. The “EAG dose-response curve at the two higher stimulus loads” value in assay [1] (males) is “continued to increase”. In assay [3] (females), this compound yielded a hesitation of 90, a reaching of 45 and a rectifying of 32.5. Also, in assay [3] (males), the hesitation worked out at 95, the reaching is recorded as 45 and the rectifying is recorded as 47.5.
